Assay results reported in article PMC3050433, “The effects of maribavir on the autophosphorylation of ganciclovir resistant mutants of the cytomegalovirus UL97 protein” (Herpesviridae, 2010).

Biological target: T1, UL97 D456A (Human cytomegalovirus, UniProt Q68101, D456A)
T1 construct: PCR reaction to generate the full length UL97; honey bee melittin secretion signal (N); made in house; host or cells: Sf21 insect cells, recombinant baculovirus (pMelBac C)
T1 sequence (Q68101 1-707 D456A): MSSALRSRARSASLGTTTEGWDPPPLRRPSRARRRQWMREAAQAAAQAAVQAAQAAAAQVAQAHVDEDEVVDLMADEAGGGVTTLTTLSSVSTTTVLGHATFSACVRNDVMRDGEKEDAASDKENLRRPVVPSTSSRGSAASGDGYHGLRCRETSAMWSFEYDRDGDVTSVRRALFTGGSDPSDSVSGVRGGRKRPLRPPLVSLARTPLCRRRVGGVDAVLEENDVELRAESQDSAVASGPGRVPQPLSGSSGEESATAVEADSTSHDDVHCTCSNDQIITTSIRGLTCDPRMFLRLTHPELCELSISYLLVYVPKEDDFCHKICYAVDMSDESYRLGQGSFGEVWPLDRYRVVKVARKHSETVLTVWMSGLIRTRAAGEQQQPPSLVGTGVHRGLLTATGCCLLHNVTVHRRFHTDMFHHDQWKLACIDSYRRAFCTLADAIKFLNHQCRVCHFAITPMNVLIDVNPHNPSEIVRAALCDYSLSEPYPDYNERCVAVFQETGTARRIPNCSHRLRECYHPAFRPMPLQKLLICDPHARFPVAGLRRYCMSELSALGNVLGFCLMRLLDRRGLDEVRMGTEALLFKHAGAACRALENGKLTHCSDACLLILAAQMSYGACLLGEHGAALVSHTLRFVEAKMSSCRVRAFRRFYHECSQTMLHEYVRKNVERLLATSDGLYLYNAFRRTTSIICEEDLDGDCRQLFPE
Assay: UL97 autophosphorylation protein kinase assay, D456A
Format: biochemical
Conditions: D456A mutant
Description: Analysis of the autophosphorylation of wild type and mutant UL97 protein species was performed by a standard protein kinase assay as previously described (46). Briefly, purified protein was added to 2× protein kinase buffer (100 mM Tris HCl, pH9.0, 20 mM MgCl2, 10 μM ATP, 4 mM DTT, 2 M NaCl) and 370 KBq [γ^32P] ATP (Amersham), made up to 20 μl with SDW and incubated at 37°C. The reactions were terminated by the addition of 2× SDS sample buffer followed by boiling for 3 minutes. The amount of radiolabelled phosphate incorporated by autophosphorylation was analysed by SDS-PAGE and measured using the Biorad Mulitanalyst. The protein kinase assays were initially performed for 2 to 60 minutes to determine the maximum rate of phosphate incorporation, all assays were then performed at the maximum rate which equated to 5 minutes.
Enzyme kinetic analysis was performed on the purified wild type and mutant UL97 protein species as above using increasing concentrations of ATP (2 μM to 20 μM). The amount of incorporated radiolabelled phosphate was plotted against the concentration of ATP in a Lineweaver Burke plot to determine the Km for ATP for each UL97 species. […]

CC(C)Nc1nc2cc(Cl)c(Cl)cc2n1[C@H]1O[C@@H](CO)[C@H](O)[C@@H]1O [maribavir, 5,6-dichloro-2-(isopropylamino)-1-beta-L-ribofuranosyl-1H-benzimidazole]
IC50: 34 nM
